Data on 28 compounds can be found in US7786145B2, “Cyanoguanidine-based azole compounds useful as malonyl-CoA decarboxylase inhibitors” (Chugai Seiyaku Kabushiki Kaisha, priority 2003, dated 2010).

Test [1] has as its target T1, hMCD (malonyl-CoA decarboxylase) (Homo sapiens, UniProt O95822).
T1 sequence (O95822 40-493): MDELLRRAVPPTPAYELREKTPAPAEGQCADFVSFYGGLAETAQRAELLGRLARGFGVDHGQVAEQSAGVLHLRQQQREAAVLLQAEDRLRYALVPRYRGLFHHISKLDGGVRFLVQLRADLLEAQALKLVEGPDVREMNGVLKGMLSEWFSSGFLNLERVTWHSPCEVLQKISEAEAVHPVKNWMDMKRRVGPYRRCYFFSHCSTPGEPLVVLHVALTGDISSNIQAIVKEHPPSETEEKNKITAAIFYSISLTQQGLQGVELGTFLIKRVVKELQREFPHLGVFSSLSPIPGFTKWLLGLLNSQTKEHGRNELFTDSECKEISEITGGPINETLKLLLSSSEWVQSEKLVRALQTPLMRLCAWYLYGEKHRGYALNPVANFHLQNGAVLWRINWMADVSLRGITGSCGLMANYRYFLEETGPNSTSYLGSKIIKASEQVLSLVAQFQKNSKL
The test can be described thus: In Vitro MCD Inhibitory Assay. The format is biochemical. As for the experimental part: In Vitro MCD Inhibitory Assay:
The conversion of […] was assayed using a modified protocol as previously described by Kim, Y. S. and Kolattukudy, P. E. in 1978 (Arch. Biochem. Biophys 190:585 (1978)). As shown in eq. 1-3, the establishment of the kinetic equilibrium between malate/NAD and oxaloacetate/NADH was catalyzed by malic dehydrogenase (eq. 2). […] The accumulation of NADH can be continuously followed by monitoring the increase of fluorescence emission at 460 nm on a fluorescence plate reader. The fluorescence plate reader was calibrated using the authentic acetyl-CoA from Sigma. For a typical 96-well plate assay, the increase in the fluorescence emission (λex=360 nm, λem=460 nm, for NADH) in each well was used to calculate the initial velocity of hMCD. Each 50 μL assay contained 10 mM phosphate buffered saline (Sigma), pH 7.4, 0.05% Tween-20, 25 mM K2HPO4—KH2PO4 (Sigma), 2 mM Malate (Sigma), 2 mM NAD (Boehringer Mannheim), 0.786 units of MD (Roche Chemicals), 0.028 unit of CS (Roche Chemicals), 5-10 nM hMCD, and varying amounts of MCA substrate. Assays were initiated by the addition of MCA, and the rates were corrected for the background rate determined in the absence of hMCD.

The next test has as its system CPT-I muscle isoform. The following applies: muscle isoform of CPT-I; read-out: IC50 of malonyl-CoA inhibition; cited from earlier work.
A further test has as its system CPT-I liver isoform. The following applies: liver isoform of CPT-I; read-out: IC50 of malonyl-CoA inhibition; cited from earlier work.
Test [2] concerns Isolated Working Rat Hearts. The test can be described thus: Glucose oxidation in isolated working rat hearts. The following applies: DMSO control. More on the design: unit not given here. As for the experimental part:
Isolated Working Rat Heart Assay Protocol
Isolated working hearts from male Sprague-Dawley rats (300-350 g) are subjected to a 60-minute aerobic perfusion period. The working hearts are perfused with 95% O2, 5% CO2 with a modified Krebs-Henseleit solution containing 5 mM glucose; 100 μU/mL insulin; 3% fatty acid-free BSA; 2.5 mM free Ca^2+, and 0.4 to 1.2 mmol/L palmitate (Kantor et al., Circulation Research 86:580-588(2000)). The test compound is added 5 minutes before the perfusion period. DMSO (0.05%) is used as control.
Measurement of Glucose Oxidation Rates
Samples were taken at 10-minute intervals for measurements of experimental parameters. Glucose oxidation rates are determined by the quantitative collection of ^14CO2 produced by hearts perfused with buffer containing [U14]-Glucose (R. Barr and G. Lopaschuk, in “Measurement of cardiovascular function”, McNeill, J. H. ed., Chapter 2, CRC press, New York (1997)). After the perfusion, the ^14CO2 from the perfusae is subsequently released by injecting 1 mL of perfusate into sealed test tube containing 1 mL of 9N H2SO4. The tube was sealed with a rubber stopper attached to a scintillation vial containing a piece of filter papers saturated with 300 μl of hyamine hydroxide. The scintillation vials with filter papers were then removed and Ecolite Scintillation Fluid added. Samples were counted by standard procedures as described above. Average rates of glucose oxidation for each phase of perfusion are expressed as μmol/min/g dry wt as described above.
Rates of fatty acid oxidation are determined using the same method as described above for glucose oxidation rate measurement using [^14C]palmitate or by the quantitative collection of ^3H2O produced by hearts perfused with buffer containing [5-^3H]palmitate (R. Barr and G. Lopaschuk, in “Measurement of cardiovascular function”, McNeill, J. H. ed., Chapter 2, CRC press, New York (1997)). ^3H2O was separated from [5-^3H]palmitate by treating 0.5 mL buffer samples with 1.88 mL of a mixture of chloroform/methanol (1:2 v:v) and then adding 0.625 mL of chloroform and 0.625 mL of a 2 M KCl/HCl solution. The sample is centrifuged for 10 min and aqueous phase was removed and treated with a mixture of 1 mL of chloroform, 1 mL of methanol and 0.9 mL KCl/HCl with a ration of 1:1:0.9. The aqueous layer was then counted for total ^3H2O determination. […] Average rates of fatty acid oxidation for each phase of perfusion are expressed as nmol/min/g dry wt after taking consideration the dilution factor. Active compounds are characterized by an increase in glucose oxidation and/or decrease in fatty acid oxidation as compared to the control experiments (DMSO). The compounds that caused statistically significant increases in glucose oxidation and/or decrease in fatty acid oxidation are considered to be active. Statistical significance was calculated using the Student's t test for paired or unpaired samples, as appropriate. The results with P<0.05 are considered to be statistically significant.

The test system of a further test is breast carcinoma cells. To be noted: cited from earlier work.

As for `CCCN(/C(=N/C#N)Nc1ccccc1)c1ccc2nc(S)sc2c1` [CBM-000302043], in test [1] (Table 1, MCD inhibition), the inhibitory constant (Ki) (in general, the dissociation constant of the complex between target and ligand, obtained from inhibition or displacement) was determined as 7.2 nM.

Take `COc1ccc(NC(=NC#N)N(CC(C)C)c2ccc3nc(S)sc3c2)cc1` [CBM-000302064]: in test [1] (Table 1, MCD inhibition), the inhibition constant Ki was found to be 7.1 nM. Turning to `CC(C)(COP(=O)(O)OP(=O)(O)OC[C@H]1O[C@@H](n2cnc3c(N)ncnc32)[C@H](O)[C@@H]1OP(=O)(O)O)[C@@H](O)C(=O)NCCC(=O)NCCSC(=O)CC(=O)O` [malonyl-CoA], the IC50 – broadly, the point on the concentration scale where inhibition reaches its midpoint – in the test on CPT-I muscle isoform is 30 nM; in the test with CPT-I liver isoform, 2500 nM.

Turning to `CN(C(=NC#N)Nc1ccc(C(F)(F)F)cc1)c1ccc2nc(S)sc2c1` [CBM-000302167], the inhibitory constant (Ki) stood at 2 nM in test [1] (Table 1, MCD inhibition) and 2 nM in test [1] (Table 2, MCD inhibition). In test [2], this compound returned a GOX of 239. Consider `CCCN(C(=NC#N)Nc1ccc(OC)cc1)c1ccc2nc(S)sc2c1` [CBM-000302050], for which affinity in test [1] (Table 1, MCD inhibition) was put at a Ki of 15.2 nM.

In test [1] (Table 1, MCD inhibition), `CCCN(/C(=N/C#N)Nc1ccccc1)c1ccc2nc(S)sc2c1` [CBM-000302051] came in with an inhibition constant (Ki) of 5.6 nM. The compound `CCN(C(=NC#N)Nc1ccc(C(=O)NCC(C)C)cc1)c1ccc2nc(S)sc2c1` [CBM-000302243] returned an inhibitory constant (Ki) in test [1] (Table 1, MCD inhibition) of 24.2 nM. Still for that read-out and setting: under `CC(C)CN(C(=NC#N)Nc1ccc(OC(F)(F)F)cc1)c1ccc2nc(S)sc2c1` [CBM-000302065] stands 22.5 nM. As to `CCN(C(=NC#N)Nc1ccc(C(N)=O)cc1)c1ccc2nc(S)sc2c1` [CBM-000302189], the Ki was 2.8 nM in test [1] (Table 1, MCD inhibition) and 2.8 nM in test [1] (Table 2, MCD inhibition). This compound also yielded a GOX in test [2] of 96. Compound `CCCCN(/C(=N/C#N)Nc1cccnc1)c1ccc2nc(S)sc2c1` [CBM-000302113] had a Ki in test [1] (Table 1, MCD inhibition) of 110 nM. As to `CCCN(C(=NC#N)Nc1ccc(C(=O)O)cc1)c1ccc2nc(S)sc2c1` [CBM-000302112], the inhibitory constant (Ki) in test [1] (Table 1, MCD inhibition) was found to be 1.5 nM. In test [1] (Table 1, MCD inhibition), `CCN(C(=NC#N)NCc1ccc(OC(F)(F)F)cc1)c1ccc2nc(S)sc2c1` [CBM-000302291] returned an inhibition constant (Ki) of 49.5 nM.

As for `CCCCCCCCCCCCCCOc1ccc(C(=O)O)o1` [TOFA, 5-(tetradecyloxy)-2-furoic acid], the malonyl-CoA level in the test on breast carcinoma cells was 60 % of the control. On to `CCCN(C(=NC#N)Nc1ccc(OC(F)(F)F)cc1)c1ccc2nc(S)sc2c1` [CBM-000302052], for which the Ki in test [1] (Table 1, MCD inhibition) was 67.1 nM; in test [1] (Table 2, MCD inhibition), 67.1 nM. Further, the GOX in test [2] was 131. `CCCCN(C(=NC#N)Nc1cccc(C(F)(F)F)c1)c1ccc2nc(S)sc2c1` [CBM-000302114]: in test [1] (Table 1, MCD inhibition), the Ki was 210 nM. On the same count and under the same terms, the same measure for `COC(=O)c1ccc(NC(=NC#N)N(CC(C)C)c2ccc3nc(S)sc3c2)cc1` [CBM-000302073]: 4.7 nM; for `CC(C)N(/C(=N/C#N)Oc1ccccc1)c1ccc2nc(S)sc2c1` [CBM-000302339, 3-Cyano-1-isopropyl-1-(2-mercapto-benzothiazol-6-yl)-2-phenyl-isourea]: 5.9 nM; for `COc1ccc(NC(=NC#N)Nc2ccc3nc(S)sc3c2)cc1` [CBM-000302018]: 133 nM. As to `CC(C)CN(C(=NC#N)Nc1ccc(C(F)(F)F)cc1)c1ccc2nc(S)sc2c1` [CBM-000302076], the Ki in test [1] (Table 1, MCD inhibition) was determined as 82.4 nM. As for `CCN(/C(=N/C#N)Nc1ccc(C(F)(F)F)cc1)c1ccc2nc(S)sc2c1` [CBM-000302107, N-cyano-N′-ethyl-N′-(2-mercapto-benzothiazol-6-yl)-N″-(4-trifluoromethyl-phenyl)guanidine], the Ki in test [1] (Table 1, MCD inhibition) turned out to be 1.7 nM; in test [1] (Table 2, MCD inhibition) it was 1.7 nM. Besides, the GOX in test [2] is reported as 290. In turn, `CC(C)CN(C(=NC#N)Nc1cccc(C(F)(F)F)c1)c1ccc2nc(S)sc2c1` [CBM-000302115] registered a Ki in test [1] (Table 1, MCD inhibition) of 320 nM. For `CC(C)CN(C(=NC#N)Nc1ccc(C(=O)O)cc1)c1ccc2nc(S)sc2c1` [CBM-000302088], the Ki in test [1] (Table 1, MCD inhibition) is 0.3 nM. In turn, `N#C/N=C(\Nc1ccc(OC(F)(F)F)cc1)Nc1ccc2nc(S)sc2c1` [CBM-000302047, N-cyano-N′-(2-mercapto-benzothiazol-6-yl)-N″-(4-trifluoromethoxy-phenyl)guanidine] gave a Ki in test [1] (Table 1, MCD inhibition) of 242 nM.

As to `CCCCOc1ccc(NC(=NC#N)Nc2ccc3nc(S)sc3c2)cc1` [CBM-000302048], the affinity in test [1] (Table 1, MCD inhibition), expressed as Ki, was 35.1 nM.

In test [1] (Table 1, MCD inhibition), `CCOc1ccc(NC(=NC#N)Nc2ccc3nc(S)sc3c2)cc1` [CBM-000302049] yielded a Ki of 448 nM. `CCCN(C(=NC#N)Nc1ccc(C(F)(F)F)cc1)c1ccc2nc(S)sc2c1` [CBM-000302075]: the inhibition constant Ki is 3.5 nM in test [1] (Table 1, MCD inhibition) and 3.5 nM in test [1] (Table 2, MCD inhibition). The compound also had a GOX in test [2] of 230. As to `CCN(C(=NC#N)NCc1ccc(C(F)(F)F)cc1)c1ccc2nc(S)sc2c1` [CBM-000302290], in test [1] (Table 1, MCD inhibition), the Ki came to 82.4 nM. On to `CCCCNC(=O)c1ccc(NC(=NC#N)N(CC)c2ccc3nc(S)sc3c2)cc1` [CBM-000302244], for which the Ki stood at 5.6 nM in test [1] (Table 1, MCD inhibition) and 5.6 nM in test [1] (Table 2, MCD inhibition). For the same compound, the GOX in test [2] turned out to be 152.
